Laboratory results as given in US6365618B1, “Administration of carvedilol to mitigate tardive movement disorders, psychosis, mania, and depression” (priority 2000, dated 2002).

Experiments:
tardive akathisia = assay: Case reports: oral carvedilol, agitated movements of tardive akathisia; type: in vivo, human
Text: These movements were consistent with tardive dyskinesia. […] They mentioned having been told by several psychiatrists that […] has tardive dyskinesia, and that […]'d previously taken numerous different antipsychotic drugs, including risperidone, olanzapine, and clozapine. Clozapine is recognized as a drug that, because of dangerous side-effects, is reserved as the last resort after the failure of long courses and high doses of several other antipsychotic medications. On the third hospital day, a Friday (Nov. 13, 1998), the tongue protrusion movements continued unchanged. Carvedilol 6.25 mg once daily was then started. On 11/15 the carvedilol dose was increased to 6.25 mg twice daily. When next evaluated, at 9am on Monday 11/16, the tongue protrusions were absent. The absence of dyskinesia persisted despite the patient's repeated expressions of anxiety and anxious thoughts. […] Agitation then decreased, a sign of improvement in tardive akathisia. On the ninth hospital day carvedilol was discontinued. The patient was discharged on the 15th hospital day, without recurrence of any tongue protrusion, and without observable agitation. […] They spontaneously complained that children in their neighborhood mocked them and called them a witch because of the tongue movements. They stated that […] avoids leaving the house because of harassment by the children. […]

[1] = cited from earlier work
[2] = cited from earlier work; remark: listed apart in the source
[3] = Side effects of carvedilol in patients; type: in vivo, human
Experimental: (§1) Clozapine is recognized as a drug that, because of dangerous side-effects, is reserved as the last resort after the failure of long courses and high doses of several other antipsychotic medications. […] Carvedilol 6.25 mg once daily was then started. On 11/15 the carvedilol dose was increased to 6.25 mg twice daily. […] On the ninth hospital day carvedilol was discontinued.

tardive dyskinesia [4] = assay: Case reports: oral carvedilol in hospitalized patients with tardive dyskinesia; type: in vivo, human
Experimental: as §1
On the first hospital day carvedilol 3.125 mg twice daily was started. […] Carvedilol was then restarted. […] Carvedilol was continued for a month.
This person was admitted to the hospital for the treatment of an anxiety disorder whose symptoms included insomnia, nightmares, unhappiness, suicidality, continual worry, and panic attacks. They had previously taken the antidepressants nortriptyline and fluoxetine, and was taking nefazodone 375 mg/day for one year. They were also taking the antihypertensive medication benazepril 40 mg/day, and the sleeping medication zaleplon 10 mg/day. […] They then received carvedilol 3.125 mg twice daily.
This person was in the hospital because of difficulty swallowing. […] This aspiration put them at risk of aspiration pneumonia, which is disabling and can be life-threatening. For them to receive water and food a tube was surgically inserted between their stomach and the outside of their abdomen. […] They then received carvedilol 6.25 mg twice daily.

tardive dystonia = assay: Case report: oral carvedilol, tardive dystonia and swallowing difficulty; type: in vivo, human; details: Case #4; carvedilol 6.25 mg twice daily; 28 hours, after three doses
Text: This person was in the hospital because of difficulty swallowing. This began about a year prior to hospitalization while taking haloperidol and lithium medications. Increasingly they would cough while eating or drinking. […] The swallowing difficulty worsened despite replacement of lithium and haloperidol with divalproex and olanzapine. […] This aspiration put them at risk of aspiration pneumonia, which is disabling and can be life-threatening. For them to receive water and food a tube was surgically inserted between their stomach and the outside of their abdomen. […] When they tried to drink water from a cup these movements obviously interfered with swallowing. […] On the Abnormal Involuntary Movement SCALE (AIMS) they scored 13. They then received carvedilol 6.25 mg twice daily. Twenty-eight hours later, after three doses, their swallowing was rated by the Speech Therapy Department as 70% improved.

[5] = test system: acute dystonias induced by antipsychotic medication; details: monkeys; cited from earlier work
[6] = test system: orofacial movements caused by haloperidol; details: one-day and two-week trials; cited from earlier work
tardive dyskinesia [7] = details: most studies; cited from earlier work
[8] = Case #3, carvedilol 3.125 mg twice daily, 24 hours, after two doses

COc1ccccc1OCCNCC(O)COc1cccc2[nH]c3ccccc3c12 (racemic) [carvedilol, ±-1-(carbazol-4-yloxy)-3-[[2-(o-methyoxyphenoxy)ethyl]amino]-2-propanol]
agitation (sign of tardive akathisia) (tardive akathisia; Case #1, carvedilol 6.25 mg in the morning and 12.5 mg at bedtime): decreased | agitated movements consistent with tardive akathisia (tardive akathisia; Case #2, at discharge after one week of carvedilol): no agitated movements | in vitro antioxidant activity [1]: exceptionally potent | average elimination half-life ([2]; from the human body): about 8 hours | absorption ([2]; taken by mouth): rapid and complete | faintness or bradycardia ([3]; Case #1, carvedilol 6.25 mg twice daily): lack of any faintness or bradycardia | side effects ([3]; usually effective doses to treat TD): non-existent or mild | tongue protrusions (tardive dyskinesia [4]; Case #1, carvedilol 6.25 mg once daily, then twice daily, evaluated after 3 days): absent | tongue protrusions (tardive dyskinesia [4]; Case #2, carvedilol 3.125 mg twice daily, next day): no extensions of the tongue out of the mouth occurred | tongue protrusions after carvedilol restarted (tardive dyskinesia [4]; Case #2, rehospitalized, carvedilol restarted, beginning on the next day): no longer seen | chewing movements (tardive dyskinesia [4]; [8]): gone | lip and tongue movements (tardive dyskinesia [4]; [8]): in normal range | AIMS score (Abnormal Involuntary Movement Scale) (tardive dyskinesia [4]; Case #3, carvedilol 3.125 mg twice daily, 24 hours, after two doses, score before treatment 11): 6 | tongue dyskinesia (tardive dyskinesia [4]; Case #4, carvedilol 6.25 mg twice daily, 28 hours, after three doses): decreased from mild to marginal | AIMS score (Abnormal Involuntary Movement Scale) (tardive dyskinesia [4]; Case #4, carvedilol 6.25 mg twice daily, 28 hours, after three doses, score before treatment 13): 8 | facial dystonia (tardive dystonia): disappeared | neck dystonia (tardive dystonia): decreased from moderate to mild | swallowing improvement rated by Speech Therapy Department (tardive dystonia): 70%

C#CCN(C)Cc1ccccc1 [pargyline]
acute dystonias induced by antipsychotic medication [5]: reduced

CC(C)NCC(O)COc1cccc2ccccc12 (stereo not drawn) [propranolol]
orofacial movements caused by haloperidol [6]: did not diminish

vitamin E
improvement of TD (tardive dyskinesia [7]): no significant improvement
